The results in this text go back to patent US7033812B2, “β-secretase and modulation of β-secretase activity” (Scios Inc., priority 1999, dated 2006).

The subject of the assay is neutral β-secretase activity. As to the kind of experiment: β-secretase ELISA (βNTF) with partially purified APP/β-secretase mixture, pH 7.0. It counts as biochemical, human. (In general: ELISA stands for enzyme-linked immunosorbent assay.)

With `NCCc1ccc(S(=O)(=O)F)cc1` [AEBSF], under “pH 7”, the β-secretase inhibition entry is given as “dose-dependent β-secretase inhibition”.

For cardiolipin, the “detectable levels of β-secretase activity” value (cardiolipin 0.01–100 μM in assay buffer, pH 7.0, 37° C. 16 hours, FIG. 4A) is on record as “dose-dependent increase”.
